Consider 2 compounds from patent publication US10696686B2, “Herbicidally active (alkynyl-phenyl)-substituted cyclic dione compounds and derivatives thereof” (Syngenta Limited, priority 2013, dated 2020).

SMILES strings stand for the structures. Like-named read-outs stand apart in the source and are kept apart here.

Holding throughout (type): in vivo
Experiment [1] has as its system Abutilon theophrasti (ABUTH). Description: Biological Example 1A glasshouse assay, post-emergence application. The settings on record: 312 h, read-out: Percentage phytotoxicity ABUTH. In a few lines: (§1)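 Glasshouse spray test: herbicide in acetone/water (50:50) + 0.5% Tween 20, applied pre-emergence (1 d after sowing) or post-emergence (8 d), sandy soil. Injury scored visually, 0–100%, at 13 DAA.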

Experiment [2] has as its system Alopecurus myosuroides (ALOMY). The description is as above. Particulars: 13 days after application. In a few lines:
as §1

The test system of experiment [3] is Amaranthus retroflexus (AMARE). Described as above. Particulars: 312 h, read-out: Percentage phytotoxicity AMARE. In a few lines:
as §1

The test system of experiment [4] is Echinochloa crus-galli (ECHCG). The experiment is described as above. The settings on record: 312 h, read-out: Percentage phytotoxicity ECHCG. In a few lines:
as §1

The test system of experiment [5] is Zea mays (ZEAMX, corn, maize, e.g. volunteer corn). The experiment is described as above. The settings on record: Zea mays, 312 h, post-emergence, read-out: Percentage phytotoxicity ZEAMX. The gist of the method:
as §1

For experiment [6], the system named is Digitaria sanguinalis (DIGSA). Description: Biological Example 3 glasshouse assay using various adjuvant systems, post-emergence foliar spray. The settings on record: 8 g/ha. The method, then:
Post-emergence foliar spray application, 200 L/ha, usually one or two replicates for the weeds (depending on application rate), and two replicates for soybean.
Standard warm conditions (tropical), in glasshouse. Specifically, the glasshouse bay conditions are 24° C./18° C. day/night; 16/8 hours light/dark; 65% humidity.
The herbicidal application takes place at the following growth stages for plants which include inter alia one or more of the following plants (usually the herbicidal application takes place on at least the following plants: DIGSA, ELEIN, SETFA, ZEAMX, GLXMA Nikko, and GLXMA TMG133, and often also either BRADC or BRAPP):
Digitaria sanguinalis (DIGSA)—growth stage 12 or 13
Each test compound is applied with one of the following adjuvant systems (all percentages are final concentrations in the aqueous spray mixture):
Adjuvant system 1: 0.5% v/v Adigor™ *, 1.0% v/v AMS (ammonium sulphate) and 12.5% v/v IPA (isopropyl alcohol).
Adjuvant system 1A: 0.5% v/v Adigor™ * and 12.5% v/v IPA (isopropyl alcohol).
CAS Registry no. […] A visual assessment of the % herbicidal damage is made 7 and 14 Days After herbicide Application (DAA) (or, in a minority of cases, 7 and 15 DAA), and the results are recorded as % visual herbicidal damage where 0%=no damage to plants and 100%=plant totally killed. *** Adjuvant system=either Adigor™ or Hexamoll DINCH™ or tris-(2-ethylhexyl) phosphate each at 0.5% v/v, and 12.5% v/v IPA (isopropyl alcohol), and 1.0% v/v AMS (ammonium sulphate); or 0.5% v/v Adigor™ and 12.5% v/v IPA (isopropyl alcohol); all percentages are final concentrations in the aqueous spray mixture. […]
The percentages of herbicidal damage/plant control, at 14 Days After herbicide Application (DAA) (or, in a minority of cases, at 15 DAA), for the Compounds tested and for some of the plants tested, were in the following percentage ranges. […] Phytotoxicity on Glycine max (GLXMA, Soybean) Cultivar “TMG133” Glycine max (GLXMA, soybean) cultivar “TMG133” is Roundup Ready™ glyphosate-tolerant soybean cultivar TMG133, and is typically available from Monsanto in Brazil. […]

The mark [7] stands for this setting: 30 g/ha, 13 days after application.
Where [8] appears, read: 250 g/ha, 13 days after application.

As for `CC#Cc1cc(F)c(C2C(=O)CC(CCSC)CC2=O)c(OC)c1` (stereo not shown) [Compound A11], the pest or weed control at 30 g/ha in experiment [1] (setting [7]) turned out to be 0%; in experiment [3] (setting [7]) it was 30%; in experiment [4] (setting [7]), 0%; in experiment [5] (setting [7]), 20%. In addition, the pest or weed control at 250 g/ha in experiment [1] (setting [8]) turned out to be 10%; in experiment [3] (setting [8]) it was 50%; in experiment [4] (setting [8]), 10%; in experiment [5] (setting [8]) it was 20%. Further, the “Percentage phytotoxicity ALOMY” value is listed as 0% in experiment [2] (30 g/ha) and 10% in experiment [2] (250 g/ha). For the same compound, the “percentage control of Digitaria sanguinalis (DIGSA)” value in experiment [6] (14 DAA (A11: 14 or 15 DAA), adjuvant 0.5% v/v Adigor + 1.0% v/v AMS + 12.5% v/v IPA) is given as 0%.

`C#CCC1CC(=O)C(c2c(F)cc(C#CC)cc2OC)C1=O` (stereo not shown) [Compound A8, 2-(2-fluoro-6-methoxy-4-prop-1-ynyl-phenyl)-4-prop-2-ynyl-cyclopentane-1,3-dione]: the pest or weed control at 30 g/ha in experiment [1] is 0%; in experiment [3], 0%; in experiment [4], 100%; in experiment [5], 100%. Besides, the pest or weed control at 250 g/ha was determined as 70% in experiment [1], 0% in experiment [3], 100% in experiment [4] and 100% in experiment [5]. Besides, the “Percentage phytotoxicity ALOMY” value was 70% in experiment [2] (30 g/ha) and 90% in experiment [2] (250 g/ha). In addition, the “percentage control of (phytotoxicity on) Digitaria sanguinalis (DIGSA)” value in experiment [6] (14 DAA, adjuvant 0.5% v/v Adigor + 12.5% v/v IPA) is 65%.
